The results in this text go back to patent US11542255B2, “Sulfonylureas and sulfonylthioureas as NLRP3 inhibitors” (Inflazome Limited, priority 2017, dated 2023).

Where a name gives a salt, the structure may show the parent alone.

Data set [1] deals with T1, NLRP3 (Homo sapiens, UniProt Q96P20). In words: THP-1 cells pyroptosis assay (LPS + nigericin, resazurin readout). The class given is cell-based. More on the design: Seed THP-1 cells (25,000 cells/well) containing 1.0 μg/ml LPS in 40 μl of RPMI medium; host or cells: THP-1 cells. As to conditions: NLRP3 inhibitory activity, 1.0 μg/ml LPS, 5 μM nigericin. The essentials: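 LPS-primed (1 μg/ml) THP-1 cells, 25,000/well in serum-free RPMI, given compound (8-point half-log, 10 μM top; 0.1% DMSO) for 3 h at 37 °C, then nigericin 5 μM for 1 h. Viability by resazurin (100 μM, 1-2 h), Ex 560/Em 590 nm; IC50 from 4-parameter variable-slope fit.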
T1 sequence (Q96P20 whole entry): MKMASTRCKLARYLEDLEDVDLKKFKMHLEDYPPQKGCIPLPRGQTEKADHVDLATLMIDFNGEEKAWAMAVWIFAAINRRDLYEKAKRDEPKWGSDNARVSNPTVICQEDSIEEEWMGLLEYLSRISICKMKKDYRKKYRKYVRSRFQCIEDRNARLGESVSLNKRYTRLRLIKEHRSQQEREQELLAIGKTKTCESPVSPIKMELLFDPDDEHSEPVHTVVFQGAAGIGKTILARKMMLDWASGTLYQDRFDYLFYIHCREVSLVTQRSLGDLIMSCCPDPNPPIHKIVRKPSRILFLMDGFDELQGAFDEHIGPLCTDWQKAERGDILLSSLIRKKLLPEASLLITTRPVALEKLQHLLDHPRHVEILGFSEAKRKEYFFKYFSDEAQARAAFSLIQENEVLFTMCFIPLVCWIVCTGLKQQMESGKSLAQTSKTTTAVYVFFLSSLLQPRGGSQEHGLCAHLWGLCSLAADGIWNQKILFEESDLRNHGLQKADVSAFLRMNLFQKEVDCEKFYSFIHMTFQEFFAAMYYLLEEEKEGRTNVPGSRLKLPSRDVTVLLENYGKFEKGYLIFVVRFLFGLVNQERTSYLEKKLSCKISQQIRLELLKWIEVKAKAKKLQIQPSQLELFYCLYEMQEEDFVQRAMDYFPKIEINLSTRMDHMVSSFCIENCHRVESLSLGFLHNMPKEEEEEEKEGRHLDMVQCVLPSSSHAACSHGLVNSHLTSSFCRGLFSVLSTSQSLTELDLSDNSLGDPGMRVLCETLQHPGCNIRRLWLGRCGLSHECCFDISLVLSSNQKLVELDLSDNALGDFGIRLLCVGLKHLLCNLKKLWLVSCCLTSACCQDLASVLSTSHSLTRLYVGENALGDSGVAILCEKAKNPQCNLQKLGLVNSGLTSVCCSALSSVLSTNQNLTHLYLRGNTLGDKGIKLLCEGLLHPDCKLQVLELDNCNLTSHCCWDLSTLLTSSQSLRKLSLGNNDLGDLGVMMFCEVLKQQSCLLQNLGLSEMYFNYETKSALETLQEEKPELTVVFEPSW

The nature of data set [2]: PK protocol, intravenous administration. The class given is in vivo, male Sprague Dawley rats. Conditions: male, Sprague Dawley, rat, plasma, dose (mg/kg); for Vd: read-out: Vdss. The method, then:
Pharmacokinetic parameters were determined in male Sprague Dawley rats (Charles River, UK, 250-350 g; or Vital River Laboratory Animal Technology Co Ltd, Beijing, China, 7-9 weeks old). Animals were individually housed during the study and maintained under a 12 h light/dark cycle. Animals had free access to food and water except that some orally dosed animals were food deprived overnight prior to the study.
For intravenous administration, compounds were formulated as a solution in water or […] in 2 mL/kg dosing volume and administered via tail vein. For oral administration, compounds were formulated as a solution in water or DMSO:water [10:90] in 5 mL/kg dosing volume and administered orally.
Serial blood samples (about 120-300 μL) were taken from each animal at each of 8 time-points post dose (0.083, 0.25, 0.5, 1, 2, 4, 8 and 24 h) or at each of 12 time-points post dose (0.03, 0.1, 0.17, 0.25, 0.5, 1, 2, 4, 6, 8, 12 and 24 h) or pre-dose and at each of 9 time-points post dose (0.25, 0.5, 1, 2, 4, 6, 8, 12 and 24 h). Samples were held on ice for no longer than 30 minutes before centrifugation (10,000 rpm (8,385 g) for 3 minutes; or 5,696 rpm (3,0009 for 15 minutes) for plasma generation. Plasma was frozen on dry ice prior to boanalysis. PK parameters were generated from LC-MS/MS data using Dotmatics or Phoenix WinNonlin 6.3 software.

Data set [3] addresses T1, NLRP3. In words: Human whole blood IL1β release assay (LPS + nigericin, AlphaLisa IL-1β). The class given is cell-based. More on the design: Human whole blood in Li-heparin tubes was obtained from healthy donors from a volunteer donor panel; from tissue; host or cells: human whole blood from healthy donors. As to conditions: NLRP3 inhibitory activity, 1 μg/ml LPS, 10 μM nigericin, IL-1β release, read-out: HWB IC50. An outline of the steps:
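Donor human whole blood (Li-heparin) was primed with 1 μg/mL LPS while incubated with compound (8-point half-log, 10 μM top, 0.1% DMSO) for 3 h at 37° C., then stimulated with 10 μM nigericin for 1 h. Supernatant IL-1β measured by AlphaLISA; IC50 from 4-parameter nonlinear fit.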

With `CN(C)CCn1nc(S(=O)(=O)NC(=O)Nc2c3c(cc4c2CCC4)CCC3)cc1C(C)(C)O` [Example 4, 1-(2-(Dimethylamino)ethyl)-N-((1,2,3,5,6,7-hexahydro-s-indacen-4-yl)carbamoyl)-5-(2-hydroxypropan-2-yl)-1H-pyrazole-3-sulfonamide], the IC50 in data set [1] lay in the range of 40 to 160 nM. Also, in data set [2], the area under the curve (AUC) stood at 3780 ng·h/mL, the clearance stood at 4.4 mL/min/kg, the half-life was 1.6 h and the Vd came out at 0.12 L/kg. The half-maximal inhibitory concentration (IC50) in data set [3] lay within 400 to 800 nM.

On to `CCC(c1cc(S(=O)(=O)NC(=O)Nc2c3c(cc4c2CCC4)CCC3)nn1C1CC1)N(C)C` (stereo not drawn) [Example 24, 1-Cyclopropyl-5-(1-(dimethylamino)propyl)-N-((1,2,3,5,6,7-hexahydro-s-indacen-4-yl)carbamoyl)-1H-pyrazole-3-sulfonamide], for which the IC50 in data set [1] was below 40 nM. Moreover, in data set [2], the area under the curve (AUC) was determined as 1280 ng·h/mL, the clearance was found to be 13 mL/min/kg, the half-life was 1 h and the Vd was found to be 0.84 L/kg. In addition, the IC50 in data set [3] is below 400 nM.

As for `CC(c1cc(S(=O)(=O)NC(=O)Nc2c3c(cc4c2CCC4)CCC3)nn1C1CC1)N1CCC1` (stereo not drawn) [Example 25, 5-(˜(Azetidin-1-yl)ethyl)-1-cyclopropyl-N-((1,2,3,5,6,7-hexahydro-s-indacen-4-yl)carbamoyl)-1H-pyrazole-3-sulfonamide], the IC50 in data set [1] is below 40 nM. For the same molecule, in data set [2], the AUC was 3460 ng·h/mL, the clearance worked out at 10 mL/min/kg, the half-life was 1 h and the Vd came out at 0.58 L/kg. The IC50 in data set [3] is below 400 nM.

`O=C(Nc1c2c(cc3c1CCC3)CCC2)NS(=O)(=O)c1cc(CN2CCC2)n(C2CC2)n1` [Example 30, 5-(Azetidin-1-ylmethyl)-1-cyclopropyl-N-((1,2,3,5,6,7-hexahydro-s-indacen-4-yl)carbamoyl)-1H-pyrazole-3-sulfonamide]: the IC50 in data set [1] fell in the range of 40 to 160 nM. In data set [2], the AUC came to 6210 ng·h/mL, the clearance came to 2.7 mL/min/kg, the half-life was 2.8 h and the Vd turned out to be 0.53 L/kg. Also, the IC50 in data set [3] fell in the range of 400 to 800 nM.

Regarding `Cn1nc(S(=O)(=O)[N-]C(=O)Nc2c3c(cc4c2CCC4)CCC3)cc1C[N+](C)(C)C` [Example 44, ((1,2,3,5,6,7-Hexahydro-s-indacen-4-yl)carbamoyl)((1-methyl-5-((trimethylammonio)methyl)-1H-pyrazol-3-yl)sulfonyl)amide], in data set [1], the IC50 lay in the range of 640 to 2560 nM. Further, in data set [2], the AUC was 3120 ng·h/mL, the clearance worked out at 5.3 mL/min/kg, the half-life was 1.2 h and the Vd turned out to be 0.21 L/kg. In addition, the 50% inhibitory concentration (IC50) in data set [3] was below 400 nM.

As for `CCn1nc(S(=O)(=O)NC(=O)Nc2c3c(cc4c2CCC4)CCC3)cc1CN1CCC1` [Example 49, 5-(Azetidin-1-ylmethyl)-1-ethyl-N-((1,2,3,5,6,7-hexahydro-s-indacen-4-yl)carbamoyl)-1H-pyrazole-3-sulfonamide], the concentration for half-maximal inhibition (IC50) in data set [1] is 40 to 160 nM. Moreover, in data set [2], the AUC was 6630 ng·h/mL, the clearance is 2.7 mL/min/kg, the half-life is 2.2 h and the Vd is 0.34 L/kg. Further, the concentration for half-maximal inhibition (IC50) in data set [3] is below 400 nM.

In the case of `CCn1nc(S(=O)(=O)NC(=O)Nc2c3c(cc4c2CCC4)CCC3)cc1CN(C)C` [Example 52, 5-((Dimethylamino)methyl)-1-ethyl-N-((1,2,3,5,6,7-hexahydro-s-indacen-4-yl)carbamoyl)-1H-pyrazole-3-sulfonamide], in data set [1], the concentration for half-maximal inhibition (IC50) was below 40 nM. In data set [2], the exposure (AUC) was found to be 7970 ng·h/mL, the clearance amounted to 3.5 mL/min/kg, the half-life is 1.5 h and the Vd came to 0.39 L/kg. In addition, the IC50 in data set [3] was below 400 nM.

`CCC(c1cc(S(=O)(=O)NC(=O)Nc2c3c(cc4c2CCC4)CCC3)nn1C(C)C)N(C)C` (stereo not drawn) [Example 63, 5-(1-(Dimethylamino)propyl)-N-((1,2,3,5,6,7-hexahydro-s-indacen-4-yl)carbamoyl)-1-isopropyl-1H-pyrazole-3-sulfonamide]: the IC50 in data set [1] was below 40 nM. Besides, in data set [2], the AUC was 4010 ng·h/mL, the clearance came out at 4.2 mL/min/kg, the half-life was 0.8 h and the Vd stood at 0.25 L/kg. Moreover, the IC50 in data set [3] is below 400 nM.

`CC(c1cc(S(=O)(=O)NC(=O)Nc2c3c(cc4c2CCC4)CCC3)nn1C(C)C)N(C)C` (stereo not drawn) [Example 73, 5-(1-(Dimethylamino)ethyl)-N-((1,2,3,5,6,7-hexahydro-s-indacen-4-yl)carbamoyl)-1-isopropyl-1H-pyrazole-3-sulfonamide]: the IC50 in data set [1] was below 40 nM. Moreover, in data set [2], the exposure (AUC) was 4250 ng·h/mL, the clearance was 4.3 mL/min/kg, the half-life is 3.5 h and the Vd stood at 0.51 L/kg. In addition, in data set [3], the 50% inhibitory concentration (IC50) was below 400 nM.

Take `CC(c1cc(S(=O)(=O)NC(=O)Nc2c3c(cc4c2CCC4)CCC3)nn1C)N(C)C` (stereo not drawn) [Example 77, 5-(1-(Dimethylamino)ethyl)-N-((1,2,3,5,6,7-hexahydro-s-indacen-4-yl)carbamoyl)-1-methyl-1H-pyrazole-3-sulfonamide]: the concentration for half-maximal inhibition (IC50) in data set [1] was below 40 nM. Also, in data set [2], the exposure (AUC) turned out to be 4440 ng·h/mL, the clearance turned out to be 3.8 mL/min/kg, the half-life was 3.5 h and the Vd is 0.38 L/kg. For the same molecule, the half-maximal inhibitory concentration (IC50) in data set [3] was below 400 nM.

Turning to `CCN(C)Cc1cc(S(=O)(=O)NC(=O)Nc2c3c(cc4c2CCC4)CCC3)nn1C` [Example 84, 5-((Ethyl(methyl)amino)methyl)-N-((1,2,3,5,6,7-hexahydro-s-indacen-4-yl)carbamoyl)-1-methyl-1H-pyrazole-3-sulfonamide], the IC50 in data set [1] is 40 to 160 nM. Besides, in data set [2], the AUC came out at 2490 ng·h/mL, the clearance turned out to be 6.7 mL/min/kg, the half-life was 1 h and the Vd came to 0.47 L/kg. In addition, the IC50 in data set [3] lay within 400 to 800 nM.

For the molecule `Cn1nc(S(=O)(=O)NC(=O)Nc2c3c(cc4c2CCC4)CCC3)cc1CN1CCC1` [Example 86, 5-(Azetidin-1-ylmethyl)-N-((1,2,3,5,6,7-hexahydro-s-indacen-4-yl)carbamoyl)-1-methyl-1H-pyrazole-3-sulfonamide, Sodium Salt], in data set [1], the IC50 is 160 to 640 nM. In data set [2], the exposure (AUC) is 4400 ng·h/mL, the clearance came out at 3.8 mL/min/kg, the half-life was 3.2 h and the Vd was 0.48 L/kg. For the same molecule, in data set [3], the IC50 fell in the range of 800 to 1600 nM.

Regarding `CC(C)c1cc(F)cc(C(C)C)c1NC(=O)NS(=O)(=O)c1cc(CN2CCC2)n(C)n1` [Example 88, 5-(Azetidin-1-ylmethyl)-N-((4-fluoro-2,6-diisopropylphenyl)carbamoyl)-1-methyl-1H-pyrazole-3-sulfonamide, Sodium Salt], the IC50 in data set [1] was in the range of 160 to 640 nM. In data set [2], the AUC turned out to be 1500 ng·h/mL, the clearance was 11.2 mL/min/kg, the half-life was 4.3 h and the Vd worked out at 1.64 L/kg. Besides, in data set [3], the IC50 was below 400 nM.

In the case of `CCN(C)Cc1cc(S(=O)(=O)NC(=O)Nc2c(C(C)C)cc(F)cc2C(C)C)nn1C` [Example 89, 5-((Ethyl(methyl)amino)methyl)-N-((4-fluoro-2,6-diisopropylphenyl)carbamoyl)-1-methyl-1H-pyrazole-3-sulfonamide, sodium Salt], in data set [1], the half-maximal inhibitory concentration (IC50) fell in the range of 160 to 640 nM. Also, in data set [2], the exposure (AUC) stood at 1020 ng·h/mL, the clearance was 16.3 mL/min/kg, the half-life was 1.4 h and the Vd worked out at 1.4 L/kg. Further, in data set [3], the IC50 was below 400 nM.

With `CC(C)N(C)Cc1cc(S(=O)(=O)NC(=O)Nc2c3c(cc4c2CCC4)CCC3)nn1C` [Example 91, N-((1,2,3,5,6,7-Hexahydro-s-indacen-4-yl)carbamoyl)-5-((isopropyl(methyl)amino)methyl)-1-methyl-1H-pyrazole-3-sulfonamide], the concentration for half-maximal inhibition (IC50) in data set [1] fell in the range of 160 to 640 nM. In data set [2], the area under the curve (AUC) is 2620 ng·h/mL, the clearance came to 6.9 mL/min/kg, the half-life is 4.3 h and the Vd was determined as 1.03 L/kg. Moreover, in data set [3], the half-inhibitory concentration (IC50) fell in the range of 400 to 800 nM.
